Patent publication US9783503B2, “Crystalline forms of an estrogen receptor modulator” (Genentech, Inc., priority 2014, dated 2017)
“Also recorded” adds a separate entry of the source. Counter-ions that a name gives are not always drawn. Values belong to the compound of their own block, whether it stands above or below them.

Tests used:
Oral bioavailability = details: in vivo
[1] = test system: xenograft models of ER+ breast cancer; assay: Tamoxifen-sensitive and tamoxifen-resistant xenograft models of ER+ breast cancer; assay type: in vivo
breast tumor cell = assay: Breast tumor cell proliferation; assay type: cell-based
[2] = Gravimetric Vapor Sorption (GVS); assay type: physicochemical
Experimental: Sorption isotherms were obtained using a SMS DVS Intrinsic moisture sorption analyzer, controlled by DVS Intrinsic Control software v1.0.0.30. The sample temperature was maintained at 25° C. by the instrument controls. The humidity was controlled by mixing streams of dry and wet nitrogen, with a total flow rate of 200 mL/min. The relative humidity was measured by a calibrated Rotronic probe (dynamic range of 1.0-100% RH), located near the sample. The weight change, (mass relaxation) of the sample as a function of % RH was constantly monitored by the microbalance (accuracy+0.005 mg).
Typically 5-20 mg of sample was placed in a tared mesh stainless steel basket under ambient conditions. The sample was loaded and unloaded at 40% RH and 25° C. (typical room conditions). A moisture sorption isotherm was performed as outlined below (2 scans giving 1 complete cycle). The standard isotherm was performed at 25° C. at 10% RH intervals over a 0-90% RH range. Data analysis was undertaken in Microsoft Excel using DVS Analysis Suite v6.0.0.7.
The sample was recovered after completion of the isotherm and re-analyzed by XRPD.

[3] = Thermodynamic aqueous solubility; details: for solubility at 24 h: water, 25 °C, thermodynamic from solid
Experimental: The suspension was equilibrated at 25° C. for 24 hours then the pH was measured. The suspension was then filtered through a glass fibre C filter. […] Different volumes of the standard, diluted and undiluted sample solutions were injected.
Analysis was performed on an Agilent HP1100 series system equipped with a diode array detector and using ChemStation software vB.02.01-SR1.

[4] = Static storage stability at elevated humidity, checked by XRPD; assay type: physicochemical
Description: X-Ray powder diffraction patterns were collected on a Bruker AXS C2 GADDS or a Bruker AXS D8 Advance diffractometer.

Structure (SMILES): CC/C(=C(/c1ccc(/C=C/C(=O)O)cc1)c1ccc2[nH]ncc2c1)c1ccc(F)cc1Cl [(E)-3-(4-((E)-2-(2-Chloro-4-fluorophenyl)-1-(1H-indazol-5-yl)but-1-en-1-yl)phenyl)acrylic acid]
oral bioavailability (Oral bioavailability): good oral bioavailability
anti-tumor activity ([1]; both tamoxifen-sensitive and tamoxifen-resistant xenograft models): dose dependent anti-tumor activity
ER-α tumor levels ([1]; tamoxifen-resistant xenograft models): reduction of ER-α tumor levels
Efficacious doses ([1]; xenograft models of ER+ breast cancer): 1 to 100 mg/kg/day
breast tumor cell proliferation (breast tumor cell): inhibition of breast tumor cell proliferation

Structure (SMILES): C[C@]12CC[C@@H]3c4ccc(O)cc4C[C@@H](CCCCCCCCC[S+]([O-])CCCC(F)(F)C(F)(F)F)[C@H]3[C@@H]1CC[C@@H]2O (stereo partly shown) [fulvestrant, reference compound]
efficacy compared with the free acid ([1]; in some of these models): less efficacious

Now from value to compound, other results behind:

hysteresis of sorption isotherm ([2]; 0-90% RH, 25° C.): no hysteresis
change of XRPD pattern after GVS analysis ([2]; after completion of the isotherm): No change in the XRPD pattern
mass uptake ([2]; between 0-90% RH, 25° C.): ca. 4.75%
pH of saturated aqueous solution ([3]; saturated aqueous solution, 25° C., 24 hours): about 5.45
solubility at 24 h ([3]; pH 5.45, water, aqueous solubility, saturated aqueous solution, equilibrated at 25° C. for 24 hours): 15.8 mg/mL
change by XRPD upon extended storage ([4]; extended storage in high humidity conditions at 40° C.): no visible change
Structure (SMILES): CC/C(=C(/c1ccc(/C=C/C(=O)O)cc1)c1ccc2[nH]ncc2c1)c1ccc(F)cc1Cl [Form 1, (E)-3-(4-((E)-2-(2-chloro-4-fluorophenyl)-1-(1H-indazol-5-yl)but-1-en-1-yl)phenyl)acrylic acid, N-methyl glucamine salt]
change of XRPD pattern after storage ([4]; 25° C. and 96% RH for 7 days): no visible change; also recorded: No difference in the XRPD patterns
change of XRPD pattern after storage ([4]; 40° C. and 75% RH for 7 days): no visible change; also recorded: no difference in the XRPD patterns

solubility at 24 h ([3]; Solubility, aqueous, crystalline salt prepared from MeCN (300 Vols)): 10.6 mg/mL
Structure (SMILES): CC/C(=C(/c1ccc(/C=C/C(=O)O)cc1)c1ccc2[nH]ncc2c1)c1ccc(F)cc1Cl [N-Methylglucamine, (2S,3R,4R,5R)-2,3,4,5,6-pentahydroxy-N-methylhexan-1-aminium (E)-3-(4-((E)-2-(2-chloro-4-fluorophenyl)-1-(1H-indazol-5-yl)but-1-enyl)phenyl)acrylate]

change of XRPD pattern after storage ([4]; 40° C. and 75% RH for 7 days): converted to Form 1
Structure (SMILES): CC/C(=C(/c1ccc(/C=C/C(=O)O)cc1)c1ccc2[nH]ncc2c1)c1ccc(F)cc1Cl [Pattern 2, (E)-3-(4-((E)-2-(2-chloro-4-fluorophenyl)-1-(1H-indazol-5-yl)but-1-en-1-yl)phenyl)acrylic acid, N-methyl glucamine salt]
